Source: PubChem BioAssay (NCI)
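96-well plates; 48 h exposure; 5 concentrations. Endpoints by linear interpolation between flanking doses. Not reached: highest tested concentration assigned. TGI is the concentration that stops growth completely.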

Key:
Experiment in all cases: DTP human tumour cell line panel, 48 h
[1] = test system: COLO 205 colon
[2] = test system: DLD-1 colon
[3] = test system: DMS 114 small cell lung
[4] = test system: HCT-15 colon
[5] = test system: HL-60(TB) leukemia
[6] = test system: HT29 colon
[7] = test system: M19-MEL melanoma
[8] = test system: NCI-H23 lung
[9] = test system: SK-MEL-2 melanoma
[10] = test system: UO-31 renal
[11] = test system: DU-145 prostate
[12] = test system: HS 578T breast
[13] = test system: MDA-MB-231 breast
[14] = test system: DMS 273 small cell lung
[15] = test system: XF 498 CNS

N#Cc1cc([N+](=O)[O-])ccc1NC(=O)C(=O)C(C(=O)c1ccc2ccccc2c1)C1OCc2ccccc21 (stereo unspecified)
TGI [1]: 27.8 µM
TGI [2]: 54.2 µM
TGI [3]: 29.7 µM
TGI [4]: 37.7 µM
TGI [5]: 46.7 µM
TGI [6]: 32.5 µM
TGI [7]: 31.6 µM
TGI [8]: 14.9 µM
TGI [9]: 16.2 µM
TGI [10]: 26.5 µM

CS(=O)(=O)OCC1CCCCCCCCCCC12SCCCS2 (stereo unspecified)
TGI [1]: > 100 µM
TGI [11]: > 100 µM
TGI [4]: > 100 µM
TGI [5]: > 100 µM
TGI [12]: > 100 µM
TGI [6]: > 100 µM
TGI [13]: > 100 µM
TGI [8]: > 100 µM
TGI [9]: > 100 µM
TGI [10]: > 100 µM

COc1cc(C(O)C(=O)c2cnc3cc([N+](=O)[O-])ccc3n2)ccc1O (stereo unspecified)
TGI [1]: > 100 µM
TGI [2]: > 100 µM
TGI [3]: > 100 µM
TGI [14]: > 100 µM
TGI [4]: > 100 µM
TGI [5]: > 100 µM
TGI [6]: > 100 µM
TGI [7]: > 100 µM
TGI [9]: > 100 µM
TGI [10]: > 100 µM
TGI [15]: > 100 µM

C[N+](C)(C)CC(CC(=O)[O-])C1CC1 (stereo unspecified)
TGI [1]: > 100 µM
TGI [3]: > 100 µM
TGI [14]: > 100 µM
TGI [4]: > 100 µM
TGI [5]: > 100 µM
TGI [6]: > 100 µM
TGI [7]: > 100 µM
TGI [8]: > 100 µM
TGI [9]: > 100 µM
TGI [10]: > 100 µM
TGI [15]: > 100 µM

OC(C1CCCCCCCCCC1)C(O)C1CCCCCCCCCC1 (stereo unspecified)
TGI [1]: > 100 µM
TGI [11]: > 100 µM
TGI [4]: > 100 µM
TGI [5]: > 100 µM
TGI [12]: > 100 µM
TGI [6]: > 100 µM
TGI [13]: > 100 µM
TGI [8]: > 100 µM
TGI [9]: > 100 µM
TGI [10]: > 100 µM

COc1cc(/C=C/C(=N\NC(=S)NN)c2sc(NNC(C)=O)nc2C)ccc1O
TGI [1]: > 100 µM
TGI [11]: > 100 µM
TGI [4]: > 100 µM
TGI [5]: > 100 µM
TGI [12]: > 100 µM
TGI [6]: > 100 µM
TGI [13]: > 100 µM
TGI [8]: > 100 µM
TGI [9]: > 100 µM
TGI [10]: > 100 µM

O=C1/C(=C/c2ccc(Cl)cc2)CCC1CN1CCOCC1 (stereo unspecified)
TGI [1]: > 25.3 µM
TGI [2]: 11.3 µM
TGI [3]: 70.2 µM
TGI [14]: 11.9 µM
TGI [11]: 16.1 µM
TGI [4]: 11.6 µM
TGI [5]: 3.8 µM
TGI [12]: > 100 µM
TGI [6]: 23 µM
TGI [13]: 11.2 µM
TGI [8]: 20.9 µM
TGI [9]: 33.8 µM
TGI [10]: 22.4 µM
TGI [15]: 4.97 µM

CCC(=O)N1C(=O)C(CC)(CC)C(=O)N1C(=O)CC
TGI [1]: > 100 µM
TGI [11]: > 100 µM
TGI [4]: > 100 µM
TGI [5]: > 100 µM
TGI [12]: > 100 µM
TGI [6]: > 100 µM
TGI [13]: > 100 µM
TGI [8]: > 100 µM
TGI [9]: > 100 µM
TGI [10]: > 100 µM

O=C(CC(c1ccccc1)C(C(=O)c1ccncc1)C(CC(=O)c1ccncc1)c1ccccc1)c1ccncc1 (stereo unspecified)
TGI [1]: > 100 µM
TGI [11]: > 100 µM
TGI [4]: > 100 µM
TGI [5]: > 100 µM
TGI [12]: > 100 µM
TGI [6]: > 100 µM
TGI [13]: > 100 µM
TGI [8]: > 100 µM
TGI [9]: > 100 µM
TGI [10]: > 100 µM

O=S(c1ccc(Cl)cc1)c1ccccc1C1=NCCN1 (stereo unspecified)
TGI [1]: > 100 µM
TGI [11]: > 100 µM
TGI [4]: > 100 µM
TGI [5]: > 100 µM
TGI [12]: > 100 µM
TGI [6]: > 100 µM
TGI [13]: > 100 µM
TGI [8]: > 100 µM
TGI [9]: > 100 µM
TGI [10]: > 100 µM
